Experimental data taken from ChEMBL document CHEMBL1156139, “N-Bridged bicyclic sulfonamides as inhibitors of gamma-secretase” (Bioorg Med Chem Lett, 2009).

Tests used:
in vitro [1] = details: human, liver microsomes
in vitro [2] = details: mouse, liver microsomes
Liver microsomes [3] = details: human, 0.5 h, 2 µM
[4] = mouse, microsomes, 0.5 h, 2 µM
[5] = mouse, microsomes, 0.5 h, 1 µM
Liver microsomes [6] = details: human, 0.5 h, 1 µM
in vitro [7] = details: mouse, liver microsomes; remark: listed apart in the source
in vitro [8] = details: human, liver microsomes; remark: listed apart in the source
[9] = Half life in rat; assay type: ADME, organism-based; details: in vivo
[10] = Oral bioavailability in rat; assay type: ADME, organism-based; details: in vivo
[11] = AUC in rat; assay type: ADME, organism-based; details: plasma
[12] = Clearance in rat; assay type: ADME, organism-based; details: in vivo

Compound	remaining at 0.5 h, 1 µM (in vitro [1]; Stability) [%]	remaining at 0.5 h, 1 µM (in vitro [2]; Stability) [%]	Stability (Liver microsomes [3])	Stability [4]	Stability [5]	Stability (Liver microsomes [6])	remaining at 0.5 h, 2 µM (in vitro [7]; Stability) [%]	remaining at 0.5 h, 2 µM (in vitro [8]; Stability) [%]	also measured
N#CC1CC2Cc3[nH]ncc3C(C1)N2S(=O)(=O)c1ccc(Cl)cc1 (stereo in doubt; form 2)	68	86	Not Active	Not Active					
O=S(=O)(c1ccc(Cl)cc1)N1C2Cc3[nH]ncc3C1CC(/C=C\Cl)C2 (stereo unspecified)	14	3	Not Active	Not Active					
O=C(O)C1CC2Cc3[nH]ncc3C(C1)N2S(=O)(=O)c1ccc(Cl)cc1 (stereo unspecified)			Not Active	Not Active	Not Active	Not Active			
O=S(=O)(c1ccc(Cl)cc1)N1C2Cc3[nH]ncc3C1CC(/C=C/C(F)(F)F)C2 (stereo unspecified)	6	36					39	2	
O=S(=O)(c1ccc(Cl)cc1)N1C2Cc3[nH]ncc3C1CC(/C=C/Cl)C2 (stereo unspecified)	6	7					37	1	
O=S(=O)(c1ccc(Cl)cc1)N1C2Cc3[nH]ncc3C1CC(/C=C\C(F)(F)F)C2 (stereo unspecified)	38	17	Not Active	Not Active					
O=S(=O)(c1ccc(Cl)cc1)N1C2COCC1c1cn[nH]c1C2 (stereo in doubt)			86%	100%	80%	78%			half-life [9]: 1.15 h; bioavailability [10]: 19%; AUC [11]: 2.9 µM·h; clearance [12]: 31.2 mL/min/kg
N#CC1CC2Cc3[nH]ncc3C(C1)N2S(=O)(=O)c1ccc(Cl)cc1 (stereo in doubt)					74%	70%	81	45	half-life [9]: 1.02 h; bioavailability [10]: 21%; AUC [11]: 3.4 µM·h; clearance [12]: 28.4 mL/min/kg
CS(=O)(=O)N1CC2Cc3[nH]ncc3C(C1)N2S(=O)(=O)c1ccc(Cl)cc1 (stereo unspecified)									remaining at 0.5 h, 2 µM (in vitro [7]): 96%; remaining at 0.5 h, 1 µM (in vitro [1]): 84%; remaining at 0.5 h, 1 µM (in vitro [2]): 80%; remaining at 0.5 h, 2 µM (in vitro [8]): 55%
O=S(=O)(c1ccc(Cl)cc1)N1C2CCCC1c1cn[nH]c1C2 (stereo unspecified)	48	15					5	0	half-life [9]: 0.4 h; bioavailability [10]: 2%; AUC [11]: 0.16 µM·h; clearance [12]: 38.9 mL/min/kg
O=S(=O)(c1ccc(Cl)cc1)N1C2COCC1c1cn[nH]c1C2 (stereo in doubt; 32)		75				100%	93	71	
CN(C)C(=O)N1CC2Cc3[nH]ncc3C(C1)N2S(=O)(=O)c1ccc(Cl)cc1 (stereo unspecified)	86	56	Not Active	Not Active					
N#CC1CC2Cc3[nH]ncc3C(C1)N2S(=O)(=O)c1ccc(Cl)cc1 (stereo in doubt; form 1)					80%	72%			
Cl.O=S(=O)(c1ccc(Cl)cc1)N1C2COCC1c1cn[nH]c1C2 (stereo unspecified)			71%	94%	78%	81%			
